Assay results published in ChEMBL document CHEMBL4270485, “Determination of Gymnemic Acid I as a Protein Biosynthesis Inhibitor Using Chemical Proteomics” (J Nat Prod, 2017).

Columns and labels:
[1] = biological target: T1, 80S Ribosome (Homo sapiens) (UniProt P08865+P42677+P62753+P15880+P23396+P61247+P62701+P22090+P46782+P62081+P62241+P46781+P46783+P62280+P25398+P62277+P62263+P62841+P62244+P62249+P08708+P62269+P39019+P60866+P63220+P62266+P62847+P62851+P62854+P62979+P62857+P62273+P62861+P39023+P36578+P46777+Q02878+P18124+P62424+P62917+P32969+P27635+P62906+P62913+P30050+P26373+P40429+P50914+P61313+P18621+Q07020+Q02543+P84098+P46778+P35268+P62829+P62750+P83731+P61254+P61353+P46776+P46779+P47914+P62888+P62899+P62910+P49207+P42766+P18077+Q9Y3U8+P83881+P61927+P61513+P63173+P62891+P62945+P05388+P05386); test: Binding affinity to 40S ribosomal protein S18 in human Hela cells lysates assessed as protein enrichment by measuring normalized heavy/light ratio at by nano-LC-ESIMS/MS analysis; type: cell-free
[2] = biological target: Actin, cytoplasmic 1 (Homo sapiens) (UniProt P60709); test: Binding affinity to actin, Cytoplasmic1 in human Hela cells lysates assessed as protein enrichment by measuring normalized heavy/light ratio at by nano-LC-ESIMS/MS analysis; type: cell-free
[3] = biological target: 14-3-3 protein zeta/delta (Homo sapiens) (UniProt P63104); test: Binding affinity to […] zeta/delta in human Hela cells lysates assessed as protein enrichment by measuring normalized heavy/light ratio at by nano-LC-ESIMS/MS analysis; type: cell-free
[4] = biological target: Elongation factor 1-beta (Homo sapiens) (UniProt P24534); test: Binding affinity to elongation factor 1-beta in human Hela cells lysates assessed as protein enrichment by measuring normalized heavy/light ratio at by nano-LC-ESIMS/MS analysis; type: cell-free
[5] = biological target: Elongation factor 1-gamma (Homo sapiens) (UniProt P26641); test: Binding affinity to elongation factor 1-gamma in human Hela cells lysates assessed as protein enrichment by measuring normalized heavy/light ratio at by nano-LC-ESIMS/MS analysis; type: cell-free
[6] = biological target: Phosphoglycerate kinase 1 (Homo sapiens) (UniProt P00558); test: Binding affinity to phosphoglycerate kinase 1 in human Hela cells lysates assessed as protein enrichment by measuring normalized heavy/light ratio at by nano-LC-ESIMS/MS analysis; type: cell-free
[7] = biological target: T1, 80S Ribosome (Homo sapiens); test: Binding affinity to 40S ribosomal protein S24 in human Hela cells lysates assessed as protein enrichment by measuring normalized heavy/light ratio at by nano-LC-ESIMS/MS analysis; type: cell-free
[8] = biological target: T1, 80S Ribosome (Homo sapiens); test: Binding affinity to 60S ribosomal protein L9 in human Hela cells lysates assessed as protein enrichment by measuring normalized heavy/light ratio at by nano-LC-ESIMS/MS analysis; type: cell-free
[9] = biological target: Large ribosomal subunit protein P2 (Homo sapiens) (UniProt P05387); test: Binding affinity to 60S acidic ribosomal protein P2 in human Hela cells lysates assessed as protein enrichment by measuring normalized heavy/light ratio at by nano-LC-ESIMS/MS analysis; type: cell-free
[10] = biological target: T1, 80S Ribosome (Homo sapiens); test: Binding affinity to 60S acidic ribosomal protein P0 in human Hela cells lysates assessed as protein enrichment by measuring normalized heavy/light ratio at by nano-LC-ESIMS/MS analysis; type: cell-free
[11] = biological target: T1, 80S Ribosome (Homo sapiens); test: Binding affinity to 40S ribosomal protein S14 in human Hela cells lysates assessed as protein enrichment by measuring normalized heavy/light ratio at by nano-LC-ESIMS/MS analysis; type: cell-free
[12] = biological target: Tubulin beta-4B chain (Homo sapiens) (UniProt P68371); test: Binding affinity to tubulin beta-4B chain in human Hela cells lysates assessed as protein enrichment by measuring normalized heavy/light ratio at by nano-LC-ESIMS/MS analysis
[13] = biological target: Putative annexin A2-like protein (Homo sapiens) (UniProt A6NMY6); test: Binding affinity to putative annexin A2-like protein in human Hela cells lysates assessed as protein enrichment by measuring normalized heavy/light ratio at by nano-LC-ESIMS/MS analysis; type: cell-free
[14] = biological target: T1, 80S Ribosome (Homo sapiens); test: Binding affinity to 40S ribosomal protein S5 in human Hela cells lysates assessed as protein enrichment by measuring normalized heavy/light ratio at by nano-LC-ESIMS/MS analysis; type: cell-free
[15] = biological target: Solute carrier family 25 member 3 (Homo sapiens) (UniProt Q00325); test: Binding affinity to phosphate carrier protein in human Hela cells lysates assessed as protein enrichment by measuring normalized heavy/light ratio at by nano-LC-ESIMS/MS analysis; type: cell-free
[16] = biological target: T1, 80S Ribosome (Homo sapiens); test: Binding affinity to 40S ribosomal protein S3a in human Hela cells lysates assessed as protein enrichment by measuring normalized heavy/light ratio at by nano-LC-ESIMS/MS analysis; type: cell-free
[17] = biological target: Elongation factor 1-delta (Homo sapiens) (UniProt P29692); test: Binding affinity to elongation factor 1-delta in human Hela cells lysates assessed as protein enrichment by measuring normalized heavy/light ratio at by nano-LC-ESIMS/MS analysis; type: cell-free
[18] = biological target: T1, 80S Ribosome (Homo sapiens); test: Binding affinity to 40S ribosomal protein S7 in human Hela cells lysates assessed as protein enrichment by measuring normalized heavy/light ratio at by nano-LC-ESIMS/MS analysis; type: cell-free
[19] = biological target: GTP-binding nuclear protein Ran (Homo sapiens) (UniProt P62826); test: Binding affinity to GTP-binding nuclear protein ran in human Hela cells lysates assessed as protein enrichment by measuring normalized heavy/light ratio at by nano-LC-ESIMS/MS analysis; type: cell-free

Elongation factor 1-beta (Homo sapiens), sequence (P24534 whole entry): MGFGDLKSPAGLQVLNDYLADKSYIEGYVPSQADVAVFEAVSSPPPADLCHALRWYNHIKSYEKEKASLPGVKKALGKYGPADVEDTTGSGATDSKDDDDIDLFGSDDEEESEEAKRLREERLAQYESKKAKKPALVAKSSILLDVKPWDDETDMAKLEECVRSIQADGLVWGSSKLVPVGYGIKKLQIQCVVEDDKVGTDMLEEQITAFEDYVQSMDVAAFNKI
Phosphoglycerate kinase 1 (Homo sapiens), sequence (P00558 whole entry): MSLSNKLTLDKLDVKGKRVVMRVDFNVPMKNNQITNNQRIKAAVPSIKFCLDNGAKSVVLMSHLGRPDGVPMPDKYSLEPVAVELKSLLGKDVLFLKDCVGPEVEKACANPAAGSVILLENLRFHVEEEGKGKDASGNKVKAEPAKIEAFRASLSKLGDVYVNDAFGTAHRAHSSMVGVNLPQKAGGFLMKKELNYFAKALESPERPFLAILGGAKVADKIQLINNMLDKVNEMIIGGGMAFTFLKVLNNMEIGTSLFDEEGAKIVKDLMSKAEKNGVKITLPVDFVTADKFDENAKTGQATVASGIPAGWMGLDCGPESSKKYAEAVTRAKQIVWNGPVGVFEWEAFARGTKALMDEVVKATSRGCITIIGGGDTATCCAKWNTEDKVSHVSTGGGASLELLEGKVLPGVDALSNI
14-3-3 protein zeta/delta (Homo sapiens), sequence (P63104 whole entry): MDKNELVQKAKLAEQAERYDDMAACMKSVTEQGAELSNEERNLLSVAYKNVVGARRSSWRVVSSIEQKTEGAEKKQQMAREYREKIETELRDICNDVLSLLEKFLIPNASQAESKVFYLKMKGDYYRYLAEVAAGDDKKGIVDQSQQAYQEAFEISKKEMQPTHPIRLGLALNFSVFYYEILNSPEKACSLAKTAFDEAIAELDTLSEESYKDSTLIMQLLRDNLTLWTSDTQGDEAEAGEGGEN
Large ribosomal subunit protein P2 (Homo sapiens), sequence (P05387 whole entry): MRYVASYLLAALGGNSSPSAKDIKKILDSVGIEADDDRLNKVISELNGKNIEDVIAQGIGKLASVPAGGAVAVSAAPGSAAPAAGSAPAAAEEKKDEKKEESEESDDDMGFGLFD
Solute carrier family 25 member 3 (Homo sapiens), sequence (Q00325 whole entry): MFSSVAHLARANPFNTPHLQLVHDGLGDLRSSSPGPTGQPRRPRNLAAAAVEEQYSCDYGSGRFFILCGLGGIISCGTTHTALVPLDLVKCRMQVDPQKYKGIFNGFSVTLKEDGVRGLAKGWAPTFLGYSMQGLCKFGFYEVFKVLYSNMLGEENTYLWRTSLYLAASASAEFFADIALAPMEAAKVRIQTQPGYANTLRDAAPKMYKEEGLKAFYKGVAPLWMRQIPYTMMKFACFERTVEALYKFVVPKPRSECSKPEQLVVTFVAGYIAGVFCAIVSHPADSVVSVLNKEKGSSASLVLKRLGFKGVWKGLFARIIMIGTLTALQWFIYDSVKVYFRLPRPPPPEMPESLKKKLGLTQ
Tubulin beta-4B chain (Homo sapiens), sequence (P68371 whole entry, looked up): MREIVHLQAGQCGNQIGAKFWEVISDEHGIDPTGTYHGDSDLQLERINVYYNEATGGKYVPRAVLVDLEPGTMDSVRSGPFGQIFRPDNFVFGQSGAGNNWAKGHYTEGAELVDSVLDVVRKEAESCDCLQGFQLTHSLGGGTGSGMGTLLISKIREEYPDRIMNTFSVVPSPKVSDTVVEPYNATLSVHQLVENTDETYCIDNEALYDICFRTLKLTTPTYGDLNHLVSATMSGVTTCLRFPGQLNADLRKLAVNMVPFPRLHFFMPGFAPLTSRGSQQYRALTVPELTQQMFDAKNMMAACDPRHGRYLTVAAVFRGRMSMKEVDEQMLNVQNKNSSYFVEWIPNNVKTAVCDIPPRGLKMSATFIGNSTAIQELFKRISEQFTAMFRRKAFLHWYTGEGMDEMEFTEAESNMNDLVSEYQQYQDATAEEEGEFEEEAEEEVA
Elongation factor 1-gamma (Homo sapiens), sequence (P26641 whole entry): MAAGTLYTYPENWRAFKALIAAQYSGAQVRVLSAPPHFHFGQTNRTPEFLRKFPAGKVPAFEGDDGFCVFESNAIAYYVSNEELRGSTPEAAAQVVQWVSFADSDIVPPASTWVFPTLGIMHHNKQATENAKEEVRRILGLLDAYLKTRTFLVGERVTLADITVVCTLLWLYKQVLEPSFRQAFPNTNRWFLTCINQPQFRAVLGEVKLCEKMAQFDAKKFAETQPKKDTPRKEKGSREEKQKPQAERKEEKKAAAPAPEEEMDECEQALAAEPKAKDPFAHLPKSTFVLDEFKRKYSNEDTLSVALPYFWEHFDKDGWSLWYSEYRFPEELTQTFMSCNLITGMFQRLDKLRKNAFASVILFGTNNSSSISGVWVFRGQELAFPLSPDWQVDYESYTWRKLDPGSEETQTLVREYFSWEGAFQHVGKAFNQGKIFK
Putative annexin A2-like protein (Homo sapiens), sequence (A6NMY6 whole entry): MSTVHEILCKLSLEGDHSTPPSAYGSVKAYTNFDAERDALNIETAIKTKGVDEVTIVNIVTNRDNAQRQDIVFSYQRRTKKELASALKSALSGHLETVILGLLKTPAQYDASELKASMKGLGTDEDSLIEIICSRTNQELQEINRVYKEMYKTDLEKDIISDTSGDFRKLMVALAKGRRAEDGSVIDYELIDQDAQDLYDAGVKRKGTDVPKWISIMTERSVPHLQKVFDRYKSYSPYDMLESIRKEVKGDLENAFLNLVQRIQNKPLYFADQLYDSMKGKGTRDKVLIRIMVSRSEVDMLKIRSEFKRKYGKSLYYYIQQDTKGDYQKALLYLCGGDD
Elongation factor 1-delta (Homo sapiens), sequence (P29692 whole entry): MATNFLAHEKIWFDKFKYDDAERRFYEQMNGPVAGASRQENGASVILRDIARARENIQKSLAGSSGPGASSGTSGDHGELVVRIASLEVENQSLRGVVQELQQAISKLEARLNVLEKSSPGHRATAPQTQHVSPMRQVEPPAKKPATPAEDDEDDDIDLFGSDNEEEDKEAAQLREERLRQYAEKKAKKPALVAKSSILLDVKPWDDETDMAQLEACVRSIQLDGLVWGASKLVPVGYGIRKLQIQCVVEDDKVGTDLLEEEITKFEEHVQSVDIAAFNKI

Ratio [1]: 0.448
Ratio [2]: 0.436
Ratio [3]: 0.62
Ratio [4]: 0.525
Ratio [5]: 0.536
Ratio [6]: 0.665
Ratio [7]: 0.173
Ratio [8]: 0.453
Ratio [9]: 0.329
Ratio [10]: 0.245
Ratio [11]: 0.405
Ratio [12]: 0.423
Ratio [13]: 0.988
Ratio [14]: 0.255
Ratio [15]: 0.57
Ratio [16]: 0.238
Ratio [17]: 0.622
Ratio [18]: 0.119
Ratio [19]: 1.53
Structure (SMILES): C/C=C(\C)C(=O)O[C@H]1[C@H](O)[C@]2(COC(C)=O)[C@@H](O)C[C@]3(C)C(=CC[C@@H]4[C@@]5(C)CC[C@H](O[C@@H]6O[C@H](C(=O)O)[C@@H](O)[C@H](O)[C@H]6O)[C@@](C)(CO)[C@@H]5CC[C@]43C)[C@@H]2CC1(C)C
